The values that follow come from patent US20260027123A1, “Compositions for Modulating Lipoxygenase and Methods of Using Same” (The Regents of the University of California, priority 2022, published 2026).

Common to all, as to format: physicochemical
Data set [1] is described as follows: Soluble after 24 hours at room temperature. Conditions: Table 2, 20/80 DMA/PEG400.
Data set [2] is described as follows: Absorbance spectrometry at 340 nm to characterize solubility in each solvent mixture (measured concentration). Conditions: Table 2. On the procedure:
(§1) Compositions were generally prepared by mixing with solvent and sonicated at room temperature in a water bath for 10 minutes. After a 15 minute waiting period at room temperature, the composition was sonicated again for 15 minutes at room temperature. Table 1 provides a list of formulations prepared for Compound 27332 according to certain embodiments. Table 2 provides a list of formulations prepared for 5-(methylamino)-2-naphthalen-1-yl-1,3-oxazole-4-carbonitrile (Compound ML351) according to certain embodiments. Compositions were analyzed by absorbance spectrometry at 340 nm to characterize the solubility of the compounds in each solvent mixture. Measurements were taken using a Cary60 spectrophotometer. Briefly, 2 ml absolute EtOH was added to cuvette, and instrument blanked. Then 2 μl of the excipient buffer was added, and scanned from 450 nm to 200 nm in order to confirm no large/interfering peak at 340 nm. Next, 2 μl of […] (in absolute EtOH) was added to the cuvette and scanned (450 nm to 200 nm)—this was repeated twice more for a total of three measurements. The difference in Abs(340) was determined for each subsequent addition. These three measurements were used to calculate the concentration (in molarity) using previously determined epsilon, and converted back to mg/ml.

Data set [3] can be described thus: Compositions prepared by mixing with solvent and sonication; soluble yes/no. Conditions: Table 2. The protocol:
as §1

A short description of data set [4]: Viscosity of the composition. Conditions: Table 2.
[5] abbreviates: 20/80 DMA/PEG400, Approx Conc. 50 mg/ml.
Setting [6] is: 20/80 DMA/PEG400, Approx Conc. 78.1 mg/ml.
Setting [7] is: 20/80 DMA/PEG400, Approx Conc. 90.5 mg/ml.
[8] abbreviates: 20/80 Diethylacetamide/PEG400, Approx Conc. 50 mg/ml.
The mark [9] stands for this setting: Intralipid, Approx Conc. 0.250 mg/ml.

Values joined by “and” are separate entries in the source; they are usually repeats but may differ in a detail not shown here. Identical values can stand only once.

In the case of `CNc1oc(-c2cccc3ccccc23)nc1C#N` [ML351, 5-(methylamino)-2-naphthalen-1-yl-1,3-oxazole-4-carbonitrile], the “Soluble after 24 hours at Room Temperature” value in data set [1] (Approx Conc. 50 mg/ml) and in data set [1] (Approx Conc. 78.1 mg/ml) was “yes” throughout. The “Measured Conc.” value was 46.1 mg/mL in data set [2] (setting [5]); 75.7 mg/mL in data set [2] (setting [6]); 66.3 mg/mL and 54.9 mg/mL in data set [2] (setting [7]); 52.5 mg/mL and 45.5 mg/mL in data set [2] (setting [8]); 0.315 mg/mL in data set [2] (setting [9]). Further, the Soluble result in data set [3] (setting [5]) was “yes”; in data set [3] (setting [6]) it was “yes”; in data set [3] (setting [7]), “No”; in data set [3] (setting [8]), “yes”; in data set [3] (setting [9]), “yes”. Moreover, the Viscosity result in data set [4] (setting [5]), in data set [4] (setting [6]), in data set [4] (setting [7]), in data set [4] (setting [8]) and in data set [4] (setting [9]) was “low” in each case.
